Reference: paper PMC10326142 (Cancer Chemotherapy and Pharmacology, 2023)
Where “and” joins values, the source holds several entries; their conditions need not be identical. Equal values may be shown once. Read-outs that look alike come from different tables or passages of the source. One block for each compound: values may come before it.

How the values were obtained:
[1] = tested on: P-glycoprotein (P-gp); parameters: method as in PMID 34664792; details: digoxin = P-gp substrate; cited from earlier work
[2] = tested on: patients with solid tumors; parameters: method as in Wong et al 27; details: monotherapy 180mg, N=6; cell as count (percent), ref Wong et al 27; cited from earlier work
[3] = Plasma pharmacokinetics of neratinib and trametinib co-administered, cycle 1 day 15 (LC/MS, noncompartmental); type: in vivo, human; details: for Tmax / Ctau or C24 (trough concentration) / Half-life: plasma; for Ctau or C24 (trough concentration): mean (range) in Table 4; for Oral CLss (oral clearance at steady state): mean (range) in Table 4, mean ± spread in text
[4] = tested on: patients; details: cited from earlier work
[5] = cited from earlier work
[6] = co-administered at dose level minus 1 (160 mg neratinib daily with 1 mg trametinib 5 days on and 2 days off), cycle 1 day 15, 8 patients
[7] = monotherapy 1mg, N=2, ref Infante et al 32
[8] = monotherapy 2mg, N=70, cell as count (percent), ref Infante et al 32
[9] = single agent trametinib 2 mg, 13 patients, mean (range), ref Infante et al. 32
[10] = single agent trametinib 2.5 mg, 16 patients, mean (range), ref Infante et al. 32
[11] = single agent trametinib 3 mg, 16 patients, mean (range), ref Infante et al. 32

changes in neratinib PKs compared to existing single agent PK data (in words) ([3]; PK cohort, co-administered with trametinib): no observed changes
Tmax ([3]; co-administered at dose level minus 1 (160 mg neratinib daily with 1 mg trametinib 5 days on and 2 days off), cycle 1 day 15, 8 patients, mean (range)): 5.8 (3–8) h
Ctau or C24 (trough concentration) [3, 6]: 43.99 (3.4–93) ng/mL
Oral CLss (oral clearance at steady state) [3, 6]: 76.7 ± 16.9 L/h
Oral CLss (oral clearance at steady state) ([3]; co-administered at dose level minus 1 (160 mg neratinib daily with 1 mg trametinib 5 days on and 2 days off), cycle 1 day 15, 8 patients, listed as Neratinib): 76.7 (56.5–93.5) L/h
AR (accumulation ratio) ([3]; co-administered at dose level minus 1 (160 mg neratinib daily with 1 mg trametinib 5 days on and 2 days off), day 15, 8 patients, mean (range)): 1.67 (1.19–2.16)
Half-life ([3]; human, oral): 18 h
Tmax ([3]; human, oral, read-out: Tmax): ~6 h
Compound: CCOc1cc2ncc(C#N)c(Nc3ccc(OCc4ccccn4)c(Cl)c3)c2cc1NC(=O)/C=C/CN(C)C [neratinib]
increase of digoxin AUC [1]: 32%
increase of digoxin plasma concentrations (Cmax) [1]: 54%
Grade > 3 TRAE: Diarrhea [2]: 1 (17)
Grade > 3 TRAE: Fatigue [2]: 1 (17)
Grade > 3 TRAE: Nausea [2]: 0
Grade > 3 TRAE: Rash [2]: 0
Grade > 3 TRAE: Vomiting [2]: 0
TRAE of all grades: Anorexia [2]: 1 (17)
TRAE of all grades: Diarrhea [2]: 6 (100)
TRAE of all grades: Fatigue [2]: 4 (67)
TRAE of all grades: Nausea [2]: 3 (50)
TRAE of all grades: Rash [2]: 1 (17)
TRAE of all grades: Vomiting [2]: 2 (33)

Ctau or C24 (trough concentration) [3, 6]: 27.8 (8.5–42.2) ng/mL
Oral CLss (oral clearance at steady state) [3, 6]: 1.55 ± 0.63 L/h and 1.55 L/h
Oral CLss (oral clearance at steady state) ([3]; co-administered at dose level minus 1 (160 mg neratinib daily with 1 mg trametinib 5 days on and 2 days off), cycle 1 day 15, 8 patients, listed as Trametinib): 1.55 (0.95–2.4) L/h
Half-life ([3]; human, oral): 52 h
Tmax ([3]; human, oral, read-out: Tmax): 5.6 h
trametinib clearance when co-administered with neratinib (in words) ([3]; vs published single agent data): significantly reduced
Compound: CC(=O)Nc1cccc(-n2c(=O)n(C3CC3)c(=O)c3c(Nc4ccc(I)cc4F)n(C)c(=O)c(C)c32)c1 [trametinib]
Grade > 3 TRAE: Fatigue [4, 7]: 0
Grade > 3 TRAE: Nausea [4, 7]: 0
TRAE of all grades: Mucositis [4, 8]: 3 (4)
TRAE of all grades: Nausea [4, 8]: 18 (26)
TRAE of all grades: Vomiting [4, 8]: 9 (13)
oral clearance ([5]; published single agent data): 3.81 L/h
Cmax [5, 9]: 22.2 (14–32·9) ng/mL
Ctau or C24 [5, 9]: 12.1 (8.26–16.9) ng/mL
Half-life [5, 9]: 57.6 (4·01–210) h
AUC0-24 [5, 10]: 410 (215–865) ng*h/mL
Ctau or C24 [5, 10]: 15.1 (6.86–40.5) ng/mL
Half-life [5, 10]: 90.2 (58.4–183) h
AUC0-24 [5, 11]: 540 (261–968) ng*h/mL
Cmax [5, 11]: 33.4 (15.6–60.9) ng/mL
Ctau or C24 [5, 11]: 17.9 (7.77–35.5) ng/mL
Half-life [5, 11]: 86.1 (15.1–291) h
Tmax [5, 11]: 2.05 (0.5–10.0) h
